This note sets out measurements from patent US20240059691A1 (KALVISTA PHARMACEUTICALS LIMITED, priority 2020, published 2024).

In one assay the target is Plasma Kallikrein (Homo sapiens (Human), UniProt P03952). The experiment in a line: Determination of related protease inhibition: Plasma Kallikrein (fluorogenic substrate at Km). To be noted: 25° C., read-out: IC50 (human PKal). In kind it is biochemical. A digest of the protocol:
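The enzyme from human source is assayed in the presence of various test compound concentrations, with substrate held at its Km. Accumulating fluorescence is tracked for 5 min at 25 °C, and the concentration halving uninhibited activity is reported as IC50.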

The target in a further assay is Human Factor XIIa (Homo sapiens (Human), UniProt P00748). The experiment in a line: Determination of FXIIa inhibition (fluorogenic substrate H-DPro-Phe-Arg-AFC, IC50 assay). It counts as biochemical. To be noted: substrate H-DPro-Phe-Arg-AFC at Km, 25° C.; class scale A-G. A digest of the protocol: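 Human FXIIa incubated at 25° C with fluorogenic substrate H-DPro-Phe-Arg-AFC at its Km concentration and varying compound concentrations. Fluorescence release monitored over 5 min at 25° C; linear rate expressed as % of uninhibited activity to derive IC50.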
Human Factor XIIa, sequence (P00748 373-615): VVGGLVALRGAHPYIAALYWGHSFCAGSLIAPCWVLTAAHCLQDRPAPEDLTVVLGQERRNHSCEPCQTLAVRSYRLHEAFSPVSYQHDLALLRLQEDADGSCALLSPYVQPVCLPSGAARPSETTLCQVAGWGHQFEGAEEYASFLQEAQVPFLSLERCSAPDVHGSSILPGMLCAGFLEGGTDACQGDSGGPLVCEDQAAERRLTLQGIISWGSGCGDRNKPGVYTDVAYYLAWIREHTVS

Plasma Kallikrein, sequence (P03952 391-638): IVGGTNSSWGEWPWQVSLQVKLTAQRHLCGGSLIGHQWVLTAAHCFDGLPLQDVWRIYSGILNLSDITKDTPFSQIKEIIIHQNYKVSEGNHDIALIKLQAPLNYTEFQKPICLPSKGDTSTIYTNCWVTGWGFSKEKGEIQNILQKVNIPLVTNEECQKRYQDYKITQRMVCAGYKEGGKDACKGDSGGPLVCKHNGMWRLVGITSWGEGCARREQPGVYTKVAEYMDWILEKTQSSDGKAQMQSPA
Plasma Kallikrein, sequence (P03952 20-390 partner): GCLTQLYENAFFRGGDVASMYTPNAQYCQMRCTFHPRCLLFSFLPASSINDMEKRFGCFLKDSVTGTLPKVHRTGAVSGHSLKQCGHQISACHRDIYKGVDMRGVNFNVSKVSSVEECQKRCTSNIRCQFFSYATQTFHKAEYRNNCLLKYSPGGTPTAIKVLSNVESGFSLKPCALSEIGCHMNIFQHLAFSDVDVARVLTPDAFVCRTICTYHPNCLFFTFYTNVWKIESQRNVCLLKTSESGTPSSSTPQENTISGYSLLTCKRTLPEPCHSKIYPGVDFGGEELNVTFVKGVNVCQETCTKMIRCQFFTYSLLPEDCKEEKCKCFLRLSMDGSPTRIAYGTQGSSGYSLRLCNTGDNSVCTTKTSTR

On to `Nc1nccc2c(NCc3ccc(N4CCn5ncc(CO)c5C4)nc3)cccc12` [Example 1269, (5-(5-(((1-aminoisoquinolin-5-yl)amino)methyl)pyridin-2-yl)-4,5,6,7-tetrahydropyrazolo[1,5-a]pyrazin-3-yl)methanol], for which the IC50 was over 40 µM on Plasma Kallikrein and 10 to 40 µM on Human Factor XIIa.
With `Nc1ncc(Cl)c2cc(NCc3cccc(CC(=O)N4CCn5ccnc5C4)c3)ccc12` [Example 5442, 2-(3-(((1-amino-4-chloroisoquinolin-6-yl)amino)methyl)phenyl)-1-(5,6-dihydroimidazo[1,2-a]pyrazin-7(8H)-yl)ethan-1-one], the IC50 on Plasma Kallikrein was over 40 µM; at Human Factor XIIa it was 10 to 40 µM.
For `Nc1ncc(Cl)c2cc(NCc3ccc(N4CCn5ncc(O)c5C4)nc3)ccc12` [Example 1267, 5-(5-(((1-amino-4-chloroisoquinolin-6-yl)amino)methyl)pyridin-2-yl)-4,5,6,7-tetrahydropyrazolo[1,5-a]pyrazin-3-ol], in that order: over 40 µM and 3 to 10 µM.
For `Cc1cc2c(NCc3ccc(NCC4CCN(C)CC4)nc3)ncnc2[nH]1` [Example 1254, 6-methyl-N-((6-(((1-methylpiperidin-4-yl)methyl)amino)pyridin-3-yl)methyl)-7H-pyrrolo[2,3-d]pyrimidin-4-amine], in that order: over 40 µM and 10 to 40 µM.
On the same counts, the results for `CN1CCC(CNc2ccc(CNc3ccnc4[nH]c(C(N)=O)cc34)cn2)CC1` [Example 1252, 4-(((6-(((1-methylpiperidin-4-yl)methyl)amino)pyridin-3-yl)methyl)amino)-1H-pyrrolo[2,3-b]pyridine-2-carboxamide] are over 40 µM and 10 to 40 µM.
Consider `Cc1n[nH]c2c1CCC2Nc1ccc(CNc2cccc3c(N)nccc23)cn1` (centres unmarked) [Example 1119, N5-((6-((3-methyl-1,4,5,6-tetrahydrocyclopenta[c]pyrazol-6-yl)amino)pyridin-3-yl)methyl)isoquinoline-1,5-diamine], for which the IC50 at Plasma Kallikrein and at Human Factor XIIa was 10 to 40 µM each time.
Consider `Cc1cc2c(NCc3ccc(NCC4CCN(C)CC4)nc3)cncc2[nH]1` [Example 1232, 2-Methyl-N-((6-(((1-methylpiperidin-4-yl)methyl)amino)pyridin-3-yl)methyl)-1H-pyrrolo[2,3-c]pyridin-4-amine], for which the half-inhibitory concentration (IC50) at Plasma Kallikrein lay within 10 to 40 µM; at Human Factor XIIa, 0.3 to 1 µM.
For `Nc1ncc(Cl)c2cc(NCc3ccc(NCCc4nccn4C(F)F)nc3)ccc12` [Example 1182, 4-chloro-N6-((6-((2-(1-(difluoromethyl)-1H-imidazol-2-yl)ethyl)amino)pyridin-3-yl)methyl)isoquinoline-1,6-diamine], in that order: over 40 µM and 10 to 40 µM.
On the same counts, the results for `Nc1ncc(Cl)c2cc(NCc3ccnc(OC4CCn5ccnc5C4)c3)ccc12` (centres unmarked) [Example 4432, 4-chloro-6-N-[(2-{5H,6H,7H,8H-imidazo[1,2-a]pyridin-7-yloxy}pyridin-4-yl)methyl]isoquinoline-1,6-diamine] are over 40 µM and 1 to 3 µM.
For `Cc1cc(NCc2ccc(NCC3CCN(C)CC3)nc2)cc2ccncc12` [Example 1102, 8-methyl-N-((6-(((1-methylpiperidin-4-yl)methyl)amino)pyridin-3-yl)methyl)isoquinolin-6-amine], in that order: 10 to 40 µM and 3 to 10 µM.
With `CC(C)(O)[C@H]1CCN(c2ccc(CNc3ccc4c(N)ncc(Cl)c4c3)cn2)C1` [Example 1176, 2-[(3S)-1-(5-{[(1-amino-4-chloroisoquinolin-6-yl)amino]methyl}pyridin-2-yl)pyrrolidin-3-yl]propan-2-ol], the concentration for half-maximal inhibition (IC50) is over 40 µM at Plasma Kallikrein and 3 to 10 µM against Human Factor XIIa.
On the same counts, the results for `Nc1ncc(Cl)c2cc(NCc3ccc(NCC4CCn5ccnc5C4)nc3)ccc12` (centres unmarked) [Example 1044, 4-Chloro-N6-[[6-(5,6,7,8-tetrahydroimidazo[1,2-a]pyridin-7-ylmethylamino)-3-pyridyl]methyl]isoquinoline-1,6-diamine] are 3 to 10 µM and 0.1 to 0.3 µM.
On the same counts, the results for `COc1ccc2c(NCc3ccc(NCC4CCN(C)CC4)nc3)ccnc2c1` [Example 1217, 7-methoxy-N-((6-(((1-methylpiperidin-4-yl)methyl)amino)pyridin-3-yl)methyl)quinolin-4-amine] are over 40 µM and 40 to 100 µM.
On the same counts, the results for `Cc1cnc2[nH]c(Cl)cc2c1NCc1ccc(NCC2CCN(C)CC2)nc1` [Example 1255, 2-chloro-5-methyl-N-((6-(((1-methylpiperidin-4-yl)methyl)amino)pyridin-3-yl)methyl)-1H-pyrrolo[2,3-b]pyridin-4-amine] are over 40 µM and 3 to 10 µM.
Turning to `Nc1ncc(Cl)c2cc(NCc3ccnc(OCC4CCn5cc(CO)nc5C4)c3)ccc12` (centres unmarked) [Example 4449, (7-(((4-(((1-amino-4-chloroisoquinolin-6-yl)amino)methyl)pyridin-2-yl)oxy)methyl)-5,6,7,8-tetrahydroimidazo[1,2-a]pyridin-2-yl)methanol], the values for the half-inhibitory concentration (IC50) at Plasma Kallikrein and at Human Factor XIIa were over 40 µM and 0.3 to 1 µM, respectively.
As to `Nc1nccc2c(NCc3ccc(N4CCn5nccc5C4CO)nc3)cccc12` (centres unmarked) [Example 1268, (5-(5-(((1-aminoisoquinolin-5-yl)amino)methyl)pyridin-2-yl)-4,5,6,7-tetrahydropyrazolo[1,5-a]pyrazin-4-yl)methanol], the values for the IC50 at Plasma Kallikrein and at Human Factor XIIa were over 40 µM and 3 to 10 µM, respectively.
Regarding `Nc1ncc(Cl)c2cc(NCc3ccc(OC4CCn5ccnc5C4)nc3)ccc12` (centres unmarked) [Example 1050, 4-chloro-6-N-[(6-{5H,6H,7H,8H-imidazo[1,2-a]pyridin-7-yloxy}pyridin-3-yl)methyl]isoquinoline-1,6-diamine], the IC50 on Plasma Kallikrein is over 40 µM; against Human Factor XIIa, 1 to 3 µM.
Take `Nc1ncc(Cl)c2cc(NCc3ccc(N4CCC(CC(F)F)C4)nc3)ccc12` (centres unmarked) [Example 1266, 4-chloro-N6-((6-(3-(2,2-difluoroethyl)pyrrolidin-1-yl)pyridin-3-yl)methyl)isoquinoline-1,6-diamine]: the half-inhibitory concentration (IC50) at Plasma Kallikrein was over 40 µM; on Human Factor XIIa, 10 to 40 µM.
For `CN1CCC(CNc2ccc(CNc3c(F)cnc4[nH]ccc34)cn2)CC1` [Example 1206, 5-fluoro-N-((6-(((1-methylpiperidin-4-yl)methyl)amino)pyridin-3-yl)methyl)-1H-pyrrolo[2,3-b]pyridin-4-amine], in that order: over 100 µM and 40 to 100 µM.
For `Cc1cc(NCc2ccc(NCC3CCN(C)CC3)nc2)c2cc[nH]c2n1` [Example 1246, 6-methyl-N-((6-(((1-methylpiperidin-4-yl)methyl)amino)pyridin-3-yl)methyl)-1H-pyrrolo[2,3-b]pyridin-4-amine], in that order: over 40 µM and 3 to 10 µM.
On to `Nc1ncc(Cl)c2cc(NCc3cnc(OCC4CCn5ccnc5C4)nc3)ccc12` (centres unmarked) [Example 1052, 4-Chloro-N6-[[2-(5,6,7,8-tetrahydroimidazo[1,2-a]pyridin-7-ylmethoxy)pyrimidin-5-yl]methyl]isoquinoline-1,6-diamine], for which the IC50 on Plasma Kallikrein is over 40 µM; at Human Factor XIIa it was 0.3 to 1 µM.
Regarding `Nc1ncc(Cl)c2cc(NCc3ccnc(OCC4CCCn5ccnc54)c3)ccc12` (single isomer, unassigned) [Example 4450, (S*)-4-chloro-N6-((2-((5,6,7,8-tetrahydroimidazo[1,2-a]pyridin-8-yl)methoxy)pyridin-4-yl)methyl)isoquinoline-1,6-diamine], the IC50 was 10 to 40 µM on Plasma Kallikrein and 0.1 to 0.3 µM against Human Factor XIIa.
For `Nc1nccc2c(NCc3cnc(OCC4CCn5ccnc5C4)nc3)cccc12` (centres unmarked) [Example 1042, 5-N-[(2-{5H,6H,7H,8H-imidazo[1,2-a]pyridin-7-ylmethoxy}pyrimidin-5-yl)methyl]isoquinoline-1,5-diamine], in that order: over 4 µM and 0.1 to 0.3 µM.
On the same counts, the results for `CN1CCC(CNc2ccc(CNc3cc(C(F)(F)F)cc4[nH]c(Cl)cc34)cn2)CC1` [Example 1262, 2-chloro-N-((6-(((1-methylpiperidin-4-yl)methyl)amino)pyridin-3-yl)methyl)-6-(trifluoromethyl)-1H-indol-4-amine] are 3 to 10 µM and 1 to 3 µM.
Consider `CN1CCC(CNc2ccc(CNc3cnc4nccnc4c3)cn2)CC1` [Example 1189, N-((6-(((1-methylpiperidin-4-yl)methyl)amino)pyridin-3-yl)methyl)pyrido[2,3-b]pyrazin-7-amine], for which the IC50 was over 40 µM on Plasma Kallikrein and 40 to 100 µM at Human Factor XIIa.
As to `Nc1ncc(Cl)c2cc(NCc3ccc(N4CCn5nccc5C4CO)nc3)ccc12` (centres unmarked) [Example 1273, (5-(5-(((1-amino-4-chloroisoquinolin-6-yl)amino)methyl)pyridin-2-yl)-4,5,6,7-tetrahydropyrazolo[1,5-a]pyrazin-4-yl)methanol], the 50% inhibitory concentration (IC50) was over 40 µM on Plasma Kallikrein and 3 to 10 µM on Human Factor XIIa.
On the same counts, the results for `Nc1nccc2c(NCc3ccnc(OCC4CCn5ccnc5C4)c3)cccc12` (single isomer, unassigned) [Example 4430, (S*)-N5-((2-((5,6,7,8-tetrahydroimidazo[1,2-a]pyridin-7-yl)methoxy)pyridin-4-yl)methyl)isoquinoline-1,5-diamine] are over 4 µM and 0.01 to 0.1 µM.
For the compound `Nc1ncc(Cl)c2cc(NCc3cnc(NCC4CCn5ccnc5C4)nc3)ccc12` (centres unmarked) [Example 1043, 4-chloro-6-N-{[2-({5H,6H,7H,8H-imidazo[1,2-a]pyridin-7-ylmethyl}amino)pyrimidin-5-yl]methyl}isoquinoline-1,6-diamine], the IC50 lay within 3 to 10 µM at Plasma Kallikrein and 0.3 to 1 µM on Human Factor XIIa.

By IC50 is commonly meant the concentration needed to halve the response being measured.
